Data reported in US8420693B2, “Dipyrrole compounds, compositions, and methods for treating cancer or viral diseases” (Gemin X Pharmaceuticals Canada Inc., priority 2004, dated 2013).

Tests used:
[1] = tested on: H1299 human non-small cell lung cancer-cells; test: Cancer cell viability by cellular ATP levels (ViaLight), H1299; assay type: cell-based; conditions: NCI-H1299, 72 h, 3 days of incubation, ATP levels relative to untreated control
Method: (§1) Selected cell lines included C33A cervical carcinoma cells and H1299 human non-small cell lung cancer-cells (American Type Culture Collection, Manassas, Va. USA), which were cultured in the media recommended by the American Type Culture Collection. The cells lines were plated in 96-well microtiter plates (PerkinElmer Life Sciences Inc, Boston, Mass., USA) at a confluency that allowed them to reach confluence after 4 days of growth. One day after plating, the cells were treated with various concentrations of Compounds. Stock solutions of the Compounds were prepared in dimethyl sulfoxide (Sigma-Aldrich Inc., St. Louis, Mo., USA), diluted in the recommended media and then added to the cells. The total dimethyl sulfoxide on the cells was 0.1%. After 3 days of incubation the ATP levels in the cells were quantified using a luminescent ViaLight detection system (Bio-Whittaker, MD, USA). The results were plotted relative to untreated control cells, which were set at a value of 100. The IC50s were determined using a best-fit sigmoidal dose response curve with variable slope.

[2] = tested on: C33A cervical carcinoma cells; test: Cancer cell viability by cellular ATP levels (ViaLight), C33A; assay type: cell-based; conditions: Homo sapiens, C-33-A, 72 h, 3 days of incubation, ATP levels relative to untreated control
Method: as §1

Row | SMILES | IC50 [1] | IC50 [2]
1 | COC1=CC(c2ccc(OC)c(C)c2)=NC1=Cc1[nH]c(C)cc1C [Compound 24, 2-((3-methoxy-5-(4-methoxy-3-methylphenyl)-2H-pyrrol-2-ylidene)methyl)-3,5-dimethyl-1H-pyrrole] | 1.06 µM | 0.503 µM
2 | COC1=CC(c2cc(OC)c(OC)c(OC)c2)=NC1=Cc1[nH]c(C)cc1C [Compound 28, 2-((3-methoxy-5-(3,4,5-trimethoxyphenyl)-2H-pyrrol-2-ylidene)methyl)-3,5-dimethyl-1H-pyrrole] | 2.38 µM | 0.627 µM
3 | COC1=CC(c2ccc(OC)cc2C=O)=NC1=Cc1[nH]c(C)cc1C [Compound 11, 5-methoxy-2-(4-methoxy-5-((3,5-dimethyl-1H-pyrrol-2-yl)methylene)-5H-pyrrol-2-yl)benzaldehyde] | 12.5 µM | 7 µM
4 | COC1=CC(c2cccc3ncccc23)=NC1=Cc1[nH]c(C)cc1C [Compound 4, 5-(4-methoxy-5-((3,5-dimethyl-1H-pyrrol-2-yl)methylene)-5H-pyrrol-2-yl)quinoline] | 16.6 µM | 16.6 µM
5 | COC1=CC(c2ccc(OC)c(F)c2)=NC1=Cc1[nH]c(C)cc1C [Compound 26, 2-((5-(3-fluoro-4-methoxyphenyl)-3-methoxy-2H-pyrrol-2-ylidene)methyl)-3,5-dimethyl-1H-pyrrole] | 3.65 µM | 0.849 µM
6 | COC1=CC(c2ccc(OC)nc2)=NC1=Cc1[nH]c(C)cc1C [Compound 42, 2-methoxy-5-(4-methoxy-5-((3,5-dimethyl-1H-pyrrol-2-yl)methylene)-5H-pyrrol-2-yl)pyridine] | 13.9 µM | 7.9 µM
7 | COC1=CC(c2cnn(Cc3ccccc3)c2)=NC1=Cc1[nH]c(C)cc1C [Compound 37, 1-benzyl-4-(4-methoxy-5-((3,5-dimethyl-1H-pyrrol-2-yl)methylene)-5H-pyrrol-2-yl)-1H-pyrazole] | 1.65 µM | 0.181 µM
8 | COC1=CC(c2ccc(SC(C)C)cc2)=NC1=Cc1[nH]c(C)cc1C [Compound 36, 2-((5-(4-(isopropylthio)phenyl)-3-methoxy-2H-pyrrol-2-ylidene)methyl)-3,5-dimethyl-1H-pyrrole] | 1.43 µM | 1.19 µM
9 | COC1=CC(c2cccs2)=NC1=Cc1[nH]c(C)cc1C [Compound 6, 2-((3-methoxy-5-(thiophen-2-yl)-2H-pyrrol-2-ylidene)methyl)-3,5-dimethyl-1H-pyrrole] | 8.5 µM | 6.5 µM
10 | COC1=CC(c2ccco2)=NC1=Cc1[nH]c(C)cc1C [Compound 13, 2-((5-(furan-2-yl)-3-methoxy-2H-pyrrol-2-ylidene)methyl)-3,5-dimethyl-1H-pyrrole] | 40 µM | 2 µM
11 | COC1=CC(c2ccc(C(=O)N3CCCC3)cc2)=NC1=Cc1[nH]c(C)cc1C [Compound 25, (4-(4-methoxy-5-((3,5-dimethyl-1H-pyrrol-2-yl)methylene)-5H-pyrrol-2-yl)phenyl)(pyrrolidin-1-yl)methanone] | 16.5 µM | 7.75 µM
12 | COC1=CC(c2ccc(C=O)cc2)=NC1=Cc1[nH]c(C)cc1C [Compound 9, 4-(4-methoxy-5-((3,5-dimethyl-1H-pyrrol-2-yl)methylene)-5H-pyrrol-2-yl)benzaldehyde] | 21.6 µM | 10.6 µM
13 | COC1=CC(c2ccc3c(c2)OCCN3C)=NC1=Cc1[nH]c(C)cc1C [Compound 34, 3,4-dihydro-7-(4-methoxy-5-((3,5-dimethyl-1H-pyrrol-2-yl)methylene)-5H-pyrrol-2-yl)-4-methyl-2H-benzo[b][1,4]oxazine] | 1.24 µM | 1.23 µM
14 | COC1=CC(c2ccccc2)=NC1=Cc1[nH]c(C)cc1C [Compound 1, 3-methoxy-2-((3,5-dimethyl-1H-pyrrol-2-yl)methylene)-5-phenyl-2H-pyrrole] | 10 µM | 10 µM
15 | COC1=CC(c2ccc(F)cc2)=NC1=Cc1[nH]c(C)cc1C [Compound 5, 5-(4-fluorophenyl)-3-methoxy-2-((3,5-dimethyl-1H-pyrrol-2-yl)methylene)-2H-pyrrole] | 10 µM | 2.2 µM
16 | COC1=CC(c2ccc3c(c2)OCC3)=NC1=Cc1[nH]c(C)cc1C [Compound 31, 2-((5-(2,3-dihydrobenzofuran-6-yl)-3-methoxy-2H-pyrrol-2-ylidene)methyl)-3,5-dimethyl-1H-pyrrole] | 0.668 µM | 0.212 µM
17 | COC1=CC(c2ccc(COC(C)(C)C)cc2)=NC1=Cc1[nH]c(C)cc1C [Compound 41, 2-((5-(4-(tert-butoxymethyl)phenyl)-3-methoxy-2H-pyrrol-2-ylidene)methyl)-3,5-dimethyl-1H-pyrrole] | 10.1 µM | 4.17 µM

Row | SMILES | IC50 [1] | IC50 [2]
18 | COC1=CC(c2ccc(OC)cc2OC)=NC1=Cc1[nH]c(C)cc1C [Compound 16, 2-((3-methoxy-5-(2,4-dimethoxyphenyl)-2H-pyrrol-2-ylidene)methyl)-3,5-dimethyl-1H-pyrrole] | 4.5 µM | 3 µM
19 | COc1ccc(C2=NC(=Cc3[nH]c(C)cc3C)C(OCc3ccccc3)=C2)cc1OC [Compound 43, 3-(benzyloxy)-5-(3,4-dimethoxyphenyl)-2-((3,5-dimethyl-1H-pyrrol-2-yl)methylene)-2H-pyrrole] | 0.709 µM | 0.131 µM
20 | COC1=CC(c2cc(OC)ccc2OC)=NC1=Cc1[nH]c(C)cc1C [Compound 19, 2-((3-methoxy-5-(2,5-dimethoxyphenyl)-2H-pyrrol-2-ylidene)methyl)-3,5-dimethyl-1H-pyrrole] | 20 µM | 20 µM
21 | COC1=CC(c2ccc(OC)c(O)c2)=NC1=Cc1[nH]c(C)cc1C [Compound 38, 2-methoxy-5-(4-methoxy-5-((3,5-dimethyl-1H-pyrrol-2-yl)methylene)-5H-pyrrol-2-yl)phenol] | 6.69 µM | 2 µM
22 | COC1=CC(c2ccsc2)=NC1=Cc1[nH]c(C)cc1C [Compound 15, 2-((3-methoxy-5-(thiophen-3-yl)-2H-pyrrol-2-ylidene)methyl)-3,5-dimethyl-1H-pyrrole] | 6.6 µM | 0.75 µM
23 | COC1=CC(c2cncnc2)=NC1=Cc1[nH]c(C)cc1C [Compound 35, 5-(4-methoxy-5-((3,5-dimethyl-1H-pyrrol-2-yl)methylene)-5H-pyrrol-2-yl)pyrimidine] | 15.9 µM | 8.96 µM
24 | COC1=CC(c2ccc(Br)s2)=NC1=Cc1[nH]c(C)cc1C [Compound 7, 2-((5-(5-bromothiophen-2-yl)-3-methoxy-2H-pyrrol-2-ylidene)methyl)-3,5-dimethyl-1H-pyrrole] | 15 µM | 9.5 µM
25 | COC1=CC(c2ccc(Cl)cc2)=NC1=Cc1[nH]c(C)cc1C [Compound 2, 5-(4-chlorophenyl)-3-methoxy-2-((3,5-dimethyl-1H-pyrrol-2-yl)methylene)-2H-pyrrole] | 10 µM | 2.5 µM
26 | COC1=CC(c2ccc(F)cc2F)=NC1=Cc1[nH]c(C)cc1C [Compound 3, 2-((5-(2,4-difluorophenyl)-3-methoxy-2H-pyrrol-2-ylidene)methyl)-3,5-dimethyl-1H-pyrrole] | 10 µM | 3 µM
27 | COC1=CC(c2cccc([N+](=O)[O-])c2)=NC1=Cc1[nH]c(C)cc1C [Compound 12, 2-((3-methoxy-5-(3-nitrophenyl)-2H-pyrrol-2-ylidene)methyl)-3,5-dimethyl-1H-pyrrole] | 14 µM | 15 µM
28 | COC1=CC(c2ccc(F)nc2)=NC1=Cc1[nH]c(C)cc1C [Compound 39, 2-fluoro-5-(4-methoxy-5-((3,5-dimethyl-1H-pyrrol-2-yl)methylene)-5H-pyrrol-2-yl)pyridine] | 20 µM | 7.65 µM
29 | COC1=CC(c2ccoc2)=NC1=Cc1[nH]c(C)cc1C [Compound 14, 2-((5-(furan-3-yl)-3-methoxy-2H-pyrrol-2-ylidene)methyl)-3,5-dimethyl-1H-pyrrole] | 6.5 µM | 0.7 µM
30 | COC1=CC(c2ccc(OCCN3CCCC3)cc2)=NC1=Cc1[nH]c(C)cc1C [Compound 21, 2-((5-(4-(2-(pyrrolidin-1-yl)ethoxy)phenyl)-3-methoxy-2H-pyrrol-2-ylidene)methyl)-3,5-dimethyl-1H-pyrrole] | 1.34 µM | 0.69 µM
31 | COC1=CC(c2ccc3c(c2)OCCO3)=NC1=Cc1[nH]c(C)cc1C [Compound 23, 2-((5-(2,3-dihydrobenzo[b][1,4]dioxin-7-yl)-3-methoxy-2H-pyrrol-2-ylidene)methyl)-3,5-dimethyl-1H-pyrrole] | 7.55 µM | 1.6 µM
32 | COC1=CC(c2cccnc2F)=NC1=Cc1[nH]c(C)cc1C [Compound 40, 2-fluoro-3-(4-methoxy-5-((3,5-dimethyl-1H-pyrrol-2-yl)methylene)-5H-pyrrol-2-yl)pyridine] | 20 µM | 8.55 µM
33 | COC1=CC(c2cccnc2OC)=NC1=Cc1[nH]c(C)cc1C [Compound 30, 2-methoxy-3-(4-methoxy-5-((3,5-dimethyl-1H-pyrrol-2-yl)methylene)-5H-pyrrol-2-yl)pyridine] | 5.69 µM | 1.2 µM
34 | COC1=CC(c2cccnc2Cl)=NC1=Cc1[nH]c(C)cc1C [Compound 33, 2-chloro-3-(4-methoxy-5-((3,5-dimethyl-1H-pyrrol-2-yl)methylene)-5H-pyrrol-2-yl)pyridine] | 15.9 µM | 8.73 µM
